Laboratory results published in a melting point compilation (Tetko et al.; mined from patent text by program, amines drawn as free bases though some values may be those of a salt).

Structure (SMILES)	melting point
O=C(O)CCCOc1cccc(OCCC(c2ccccc2)(c2ccccc2)c2ccccc2)c1	53 to 55 °C
C#Cc1ccc2nc(Cl)c(S(=O)(=O)N=CN(CC(C)C)CC(C)C)n2n1	166 to 168 °C
CC(=O)N(c1nc2cc3nc(N(C(C)=O)N4CCCCC4C)sc3cc2s1)N1CCCCC1C (stereo not given)	242 to 245 °C
CCOC(=O)c1csc(/C=C/c2cccc(NC(=O)Cc3ccccc3C(=O)O)c2)n1	221 to 223 °C
COc1ccc(C(=O)[C@H]2CCCC[C@H]2C(=O)O)cc1OC1CCCC1 (relative stereo)	120 to 121 °C
C=CS(=O)(=O)NC(=O)Nc1nc(C)cc(C)n1	131 to 133 °C
COC(=O)C(O)C(CC(C)C)NC(=O)C(Cc1c[nH]cn1)NC(=O)C(CC(=O)NCCc1ccccc1)Cc1cccc2ccccc12 (mixture of isomers)	82 to 87 °C
COc1c(-c2cc3c(s2)CCC/C3=N\OCc2ccccn2)ccc2c(=O)c(C(=O)O)cn(C3CC3)c12	178 to 179 °C
Cc1cc(OCc2ccccc2)cc(NC(=O)OC(C)C)c1C(=O)O	137 to 139 °C
O=C1c2ccccc2C(=O)N1CCCCCCc1cncnc1	124 to 126 °C
CCOC(=O)COc1ccc(Br)cc1C1C(C(=O)OCC)=C(C)NC(C)=C1C(=O)OCC	153 to 154 °C
CC1(C)C2CCC(C2)C1CCC(O)CCC1C2CCC(C2)C1(C)C (stereo not given)	55 to 56 °C
CCOC(=O)Nc1ccc(C(=O)Nc2ccc3ccc(OC)nc3n2)cc1	200 °C
C=CCc1cc(C(C)=O)c(O)cc1OCCCCCC(N)=O	122 to 124 °C
Cc1cc(NC(=O)N(C)C)cc(C)c1S(=O)(=O)C[N+](=O)[O-]	205 to 206 °C
COC(=O)COc1c(OC)cc(C(=O)C#Cc2cc(-c3cccs3)c(OC)cc2OC)cc1OC	153 to 155 °C
CCN1CC2=C(C1)CN(c1c(F)cc3c(=O)c(C(=O)O)cn(C4CC4)c3c1F)C2	188 to 192 °C
CCC(=O)[C@@H](NC(=O)OCc1ccccc1)C(C)C	49 to 50 °C
COc1ccc(NC(=O)c2ccc(COc3ccc4c(c3)CCC(CCN3CCCCC3)C4)cc2)cc1OC (stereo not given)	178 to 180 °C
O=C(O)c1cn(Cc2cnsn2)c2nc(Cl)c(F)cc2c1=O	231 to 232 °C
COCCCOc1cc(C[C@@H](C(=O)O)C(C)C)ccc1OC	43.5 to 44 °C

Structure (SMILES)	melting point
CCCc1c(OCCCOc2cc(OCc3ccccc3)c(-c3ccc(F)cc3)cc2CC)cccc1Oc1cc(F)ccc1C(=O)OC	77 to 78 °C
C=CCc1cc(C)c2c(c1O)C(C)(C)C(=O)N2Cc1ccccc1	161 to 162 °C
CCc1ccc2c(c1)C=Cc1cc(O)ccc1C2c1cn(-c2ccnc(NCC(=O)Nc3nc(CC(=O)O)cs3)n2)c(=O)[nH]c1=O (stereo not given)	225 °C
COc1cc2c(C)c(C)sc2c(Cl)c1Cl	159 to 160 °C
CCc1cccc(C)c1CNc1cc(C(=O)OC)cn2c(C)nnc12	214 °C
O=C1c2ccc(Cl)cc2C(=O)C(O)(O)C1(O)O	134 to 136 °C
CCOC(=O)c1c(Cn2nccn2)nc2cc(OC)c(OC)cc2c1-c1ccc(OC)c(OC)c1	163 to 164 °C
CCCCC(=N)OCC	89 to 91 °C
CS(=O)(=O)c1ccc(C2=C(c3ccccc3)C(=O)N(c3ccc(F)cc3)C2=O)c(F)c1	198 to 200 °C
CCC(C)C(NC(=O)OC)C(=O)NC(Cc1ccccc1)C(O)CN(Cc1ccc(-c2cncs2)cc1)NC(=O)C(NC(=O)OC)C(C)C (stereo not given)	202 to 204 °C
O=C(CCCl)Nc1cccc(NC(=O)Nc2ccc(N(CCCl)CCCl)cc2)c1	232 to 233 °C
COc1ccc(S(=O)(=O)Nc2ccccc2NC(=O)c2cccnc2C)cc1	148 to 149 °C
CCN(Cc1ccc(Cl)nc1)C(=NC)C(=Cc1ccco1)[N+](=O)[O-]	155 to 156 °C
Cc1nc(C)c(Cl)c(NCc2nccc(SCCCCN3CCNCC3)c2C)n1	143 to 145 °C
CCOC(=O)c1[nH]c(C)cc1N	85 to 87 °C
COc1cc(C=NNC2=NCCc3ccccc32)cc(OC)c1O	232 to 233 °C
CCOC1CC2(C)C(CCC3C4CCC(C(C)=O)C4(C)CC(NCCC(C)C)C32)CC1O (stereo not given)	110 to 112 °C
COc1ccc(C(C)C)cc1-c1cc(C(=O)NC2CCN(C(=O)OC(C)(C)C)CC2)c(OCc2ccccc2)cc1OCc1ccccc1	168 to 170 °C
CN1C(=O)[C@H](NC(=O)CNc2ccccc2Cl)N=C(c2ccccc2)c2ccccc21	222 to 224 °C
COc1cccc(NC(=O)NCC(=O)N(CC(=O)OC(C)(C)C)c2ccccc2C(=O)c2ccccc2)c1	153 to 155 °C
CC(=NNc1c(Cl)cc(C(F)(F)F)cc1Cl)C(=NO)C(=O)Nc1ccccc1	185 to 186 °C

Second part, the molecule after the results:

melting point	Structure (SMILES)
184 to 186 °C	Cc1ccc(C(N)=O)c(C)c1
261 to 262 °C	CC1(C)CCC(C)(C)c2cc3c(cc21)CCc1c(-c2ccc(C(=O)O)cc2)csc1-3
124 to 125 °C	COC(=O)[C@H]1C[C@H](n2c(Br)c(-c3cccc(OCc4ccccc4)c3)c3c(N)ncnc32)C1
186 to 187 °C	COC(=O)c1ccc2nc(SCCN3CCN(CC(=O)Nc4c(C(C)C)cccc4C(C)C)CC3)oc2c1C(=O)OC
92.4 °C	N#Cc1ccc(C2(CBr)OCCO2)cc1
251 °C	c1ccc(COc2ccc(-c3cc4ccccc4[nH]3)cc2)cc1
66 to 68 °C	CCOC(=O)C1COc2c(OC)ccc([N+](=O)[O-])c2C1 (stereo not given)
300 to 302 °C	CN1CC2c3ccc(C=O)n3Cc3ccccc3N2C(=O)C1=O (stereo not given)
147 to 149 °C	O=P(Cc1ccccc1)(C1CCCCC1)C1CCCCC1
194 to 196 °C	Cc1cc(COc2ccccc2)c2c(N)c(C(N)=O)sc2n1
107 to 110 °C	COCc1nc(C(=O)OC)c(C(=O)OC)n1Cc1ccc([N+](=O)[O-])cc1
107 to 108 °C	CCOCc1cc2ccc(OC)cc2o/c1=N\c1ccccc1
258 to 265 °C	CN1C(C(=O)Nc2ccc(O)c(=O)cc2)=C(O)c2ccccc2S1(=O)=O
124 to 125 °C	CC(=O)OCCn1c(C)c(C(=O)Nc2ccc(OCC(C)(C)C)c(C#N)c2)c2cc(F)ccc21
135 to 136 °C	Cc1nccn1-c1cccc(Nc2ccc(I)cc2[N+](=O)[O-])c1
187 °C	CCN1C(=O)COc2ccc(-c3nn[nH]c3-c3cccc(C)n3)cc21
225 to 227 °C	Cn1cc(-c2cccc(N3Cc4cc(C(C)(C)C)ccc4C3=O)c2CO)nc(Nc2ccc(N3CCOCC3)cc2)c1=O
136 to 138 °C	Cc1c(C#Cc2ccc(C(F)(F)F)cc2)ccc(N)c1C#N
127 to 129 °C	O=[N+]([O-])c1cnc2cccnc2c1NCc1ccccc1
197 to 198 °C	CC1(C)OC(=S)Nc2ccc(-c3cccc(F)c3F)cc21
172 to 173 °C	CCc1c(C)c(NC(=O)CC(C)(C)C)c(C)c2c1SCC2c1ccc(C(C)C)cc1 (stereo not given)
167 to 169 °C	O=Cc1cc2c3ccccc3ccc2c2ccccc12
125 to 127 °C	O=C(NS(=O)(=O)C=Cc1ccccc1)N1CCC(CCCc2ccccc2)CC1
179 °C	CCCN1CCn2c(=S)[nH]c3cccc(c32)C1C (stereo not given)
184 to 186 °C	O=c1ccc2cc(OC3O[C@H](CO)[C@@H](O)[C@H](O)[C@H]3O)c(OCc3ccccc3)cc2o1 (stereo not given in full)
69 °C	CCOP(=O)(OCC)c1cnc2ccc(C(F)(F)F)cc2c1
106 to 108 °C	CCC(CC)N(Cc1ccc(C(=O)OC)cc1)S(=O)(=O)c1ccc(C)cc1

melting point	Structure (SMILES)
305 to 308 °C	Clc1ccc(-c2nc3cccnc3[nH]2)cc1
134 to 136 °C	O=C1c2ccc(N3CCCCC3)c3cc(Br)cc(c23)C(=O)N1O
215 to 217 °C	N#Cc1cccc(-n2c(=O)c(N3CCCCCC3)cc3cccnc32)c1
296 to 298 °C	COc1ccc(Cl)c(Nc2c(C#N)cnc3c2C=C2N=CN=C2C3)c1
188 °C	O=CC1C(=O)CCC(c2ccccc2)(c2ccccc2)C1C[N+](=O)[O-] (stereo not given)
88.5 to 91 °C	COc1ccccc1NCN1C(=O)CSC1=O
109 °C	CCCCCC(=O)N1CCc2nc3ccccc3c(C)c2CC1
106 to 107 °C	CC(C(=O)O)c1ccc(C=C2CCCC2=O)cc1 (stereo not given)
81 to 84 °C	CC(C)(C)CC(=Cc1ccc(Cl)cc1)Cn1cncn1
264 to 265 °C	O=C1NN=C(c2ccc(NC(=O)C3CC3(Cl)Cl)cc2)C2CC12 (stereo not given)
142 to 144 °C	COc1cc(O)c2c(c1O)CC=CC2
102 to 104 °C	OCC(O)Cc1nccn1CCCc1cccc(OCc2coc(/C=C/c3ccc(C(F)(F)F)cc3)n2)c1 (stereo not given)
157 to 159 °C	CCOC(=O)C(C(=O)OCC)C(CC#N)c1ccc(CC)cc1 (stereo not given)
131 to 132 °C	CC(C)=CCc1c(O)ccc(C(=O)C=Cc2ccccc2)c1O
196 to 198 °C	CCOC(=O)n1c(C(=O)c2ccc(F)cc2)c(NC(C)=O)c2ccc(Cl)cc21
130 °C	O=C1OC(c2ccccc2)C2CCc3cc(OCCCC(F)(F)F)ccc3N12 (stereo not given)
78 to 80 °C	Cc1c(C)c2c(c(C)c1OCCCc1ccccc1)C(c1ccc(C(C)C)cc1)C(C)(C)O2 (stereo not given)
146 to 149 °C	Nc1ccc(C(=O)N2CCCCc3sc(Cl)cc32)cc1
140 to 142 °C	CCOC(=O)NCc1cccc(-c2ccnc3c(C#N)cnn23)c1
209 to 210 °C	O=C(C=Cc1ccc(CNCC2CCCC2)cc1)Nc1ccc(-c2ccc(Cl)cc2)cc1
216 °C	N#CC1=C(C2CCNCC2)Nc2n[nH]cc2C1c1cccc2nonc12 (stereo not given)
185 °C	CC(=O)Nc1ccccc1N(CC(=O)OC(C)(C)C)C(=O)CNC(=O)Nc1cccc(C)c1
73 to 74 °C	CCCC(=O)NCCN1CCOc2ccc(OC)cc21
201 to 203 °C	CC1c2ccccc2-c2cc(Br)ccc2N1S(=O)(=O)c1ccc(O)cc1 (stereo not given)
193 to 194 °C	O=C(N1CCOCC1)N1Cc2c(-c3nc(C4CC4)cs3)ncn2-c2ccccc21
179 °C	CCO[C@@H]1C[C@@H]2CN(C(=O)[C@@H](NC(=O)[C@H](C)NC)C3CCC(F)(F)CC3)[C@H](C(=O)N[C@@H]3CCOc4ccccc43)CN2C1
